The results in this text go back to PubChem BioAssay AID588440 (The Scripps Research Institute Molecular Screening Center, 2011).

The source made the active and inactive calls.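 How the source made its calls: active means half-maximal cytotoxic concentration at or below 10 µM; inactive means the rest.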

For orientation: CC50 means the concentration that lowers cell viability or growth by half.

This assay concerns HEK293 LDH release cytotoxicity, resorufin fluorescence. In words: membrane integrity loss in HEK cells – cell-based, fluorescence, cytotoxicity control for IDE activator project, dose response (AID 588440).

As to `C#CCOCCOCCOCCNc1nc(N2CCN(C(=O)CCCCCCCCCCNC(=O)Cn3cc(C[C@@H](C)O)nn3)CC2)nc(N2CCN(C(=O)CCCCCCCCCCNC(=O)[C@H](CCCN=C(N)N)n3cc(C[C@@H](C)CC)nn3)CC2)n1`, the CC50 is 7.28 µM.

For the molecule `C#CCOCCOCCOCCNc1nc(N2CCN(C(=O)CCCCCCCCCCNC(=O)Cn3cc(CCCCCN)nn3)CC2)nc(N2CCN(C(=O)CCCCCCCCCCNC(=O)[C@H](CO)n3cc(CCCSC)nn3)CC2)n1`, the CC50 is 17.4 µM (inactive).

For `C#CCOCCOCCOCCNc1nc(N2CCN(C(=O)CCCCCCCCCCNC(=O)Cn3cc(CCCCCN)nn3)CC2)nc(N2CCN(C(=O)CCCCCCCCCCNC(=O)[C@H]([C@@H](C)CC)n3cc(CCCCCN)nn3)CC2)n1`, the cytotoxic concentration (CC50) is 5.97 µM.

For the molecule `C#CCOCCOCCOCCNc1nc(N2CCN(C(=O)CCCCCCCCCCNC(=O)[C@H]([C@@H](C)CC)n3cc(CCCCN=C(N)N)nn3)CC2)nc(N2CCN(C(=O)CCCCCCCCCCNC(=O)[C@@H]([C@H](C)O)n3cc(C)nn3)CC2)n1`, the CC50 was 6.37 µM.

Turning to `C#CCOCCOCCOCCNc1nc(N2CCN(C(=O)CCCCCCCCCCNC(=O)[C@H](CCCCN)n3cc(CCO)nn3)CC2)nc(N2CCN(C(=O)CCCCCCCCCCNC(=O)[C@H](CCCN=C(N)N)n3cc(C[C@@H](C)CC)nn3)CC2)n1`, the CC50 was 5.63 µM.

`C#CCOCCOCCOCCNc1nc(N2CCN(C(=O)CCCCCCCCCCNC(=O)Cn3cc(CCCCCN)nn3)CC2)nc(N2CCN(C(=O)CCCCCCCCCCNC(=O)Cn3cc(C[C@@H](C)O)nn3)CC2)n1`: the CC50 is 16.4 µM (inactive).

Take `C#CCOCCOCCOCCNc1nc(N2CCN(C(=O)CCCCCCCCCCNC(=O)[C@H]([C@@H](C)CC)n3cc(CCCCCN)nn3)CC2)nc(N2CCN(C(=O)CCCCCCCCCCNC(=O)[C@H]([C@@H](C)CC)n3cc(CCCCN=C(N)N)nn3)CC2)n1`: the CC50 is 2.07 µM.

For `C#CCOCCOCCOCCNc1nc(N2CCN(C(=O)CCCCCCCCCCNC(=O)[C@@H](CCSC)n3cc(CCO)nn3)CC2)nc(N2CCN(C(=O)CCCCCCCCCCNC(=O)[C@H](CO)n3cc(CCCCCN)nn3)CC2)n1`, the CC50 was 12.6 µM (inactive).

Regarding `C#CCOCCOCCOCCNc1nc(N2CCN(C(=O)CCCCCCCCCCNC(=O)[C@H](CO)n3cc(CCCSC)nn3)CC2)nc(N2CCN(C(=O)CCCCCCCCCCNC(=O)[C@H](CCCCN)n3cc(CCO)nn3)CC2)n1`, the CC50 is 20.8 µM (inactive).
